Here are results for 21 compounds from ChEMBL document CHEMBL1201862, “PubChem BioAssay data set” (2004).

The source made the active and inactive calls. Cut-off read from the data, not from the text of the source, for most assays here: actives have a measured EC50 and inactives only a lower limit.

A short description of one assay: cells. The assay is classed as functional.
The nature of assay [1]: microbe, parasite or virus in culture. The assay is classed as functional. Conditions: Mycobacterium tuberculosis.
The nature of assay [2]: inhibitors of SNCA 5'UTR-driven reporter translation, confirmation, H4 neuroglioma cells, luminescence (AID 1988). Type of assay: functional, cell-based.
Assay [3] is described as follows: inhibitors of firefly luciferase expression or activity, dose response, H4 neuroglioma cells, luminescence (AID 1990). Type of assay: functional, cell-based.
A short description of assay [4]: cytotoxicity toward NIH3T3 fibroblasts, dose response, counter-screen, cell-based, ATP luminescence, mouse fibroblasts (AID 2010).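 Note: cells exposed to compound for about 90 hours before reading.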 The assay is classed as functional.
Assay [5] is described as follows: inhibitors of intracellular T. cruzi replication, confirmation, NIH3T3 host cells, beta-gal luminescence (AID 2044).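 Note: intracellular parasites grown in NIH/3T3 mouse fibroblasts as host cells; luminescent beta-galactosidase reporter signal from transgenic T. cruzi replicating inside host cells; inhibitors lower the luminescence signal.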 Type of assay: functional, cell-based.
Assay [6] is described as follows: cytotoxicity toward DRD oncogenic fibroblasts, dose response, cell-based, non-viral oncogenic, luminescence (AID 1934). Type of assay: functional. To be noted: Homo sapiens.
Assay [7] deals with BJ. As to the kind of experiment: cytotoxicity toward BJ-TERT fibroblasts, dose response, cell-based, RAS-independent, luminescence (AID 1933). Conditions: Homo sapiens. The assay is classed as functional.
Assay [8] has as its system BJ. As to the kind of experiment: cells. The assay is classed as functional, cell-based. Conditions: Homo sapiens.
The test system of assay [9] is BJ. Briefly: cytotoxicity toward BJ-TERT-LT-ST fibroblasts, dose response, cell-based, RAS-independent, luminescence (AID 1935).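 Note: BJ fibroblasts immortalized with TERT plus LT and ST oncogenes.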 Conditions: Homo sapiens. Type of assay: functional.
The nature of assay [10]: HEp-2 cell cytotoxicity, dose response, cytotoxicity control for RSV inhibitor project, HTS (AID 2410). The assay is classed as functional. To be noted: human respiratory syncytial virus.
The target in a further assay is Cytochrome P450 3A4 (Homo sapiens, UniProt P08684).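 Note: CYP3A4 tested as one member of a cytochrome P450 panel screen.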
Chain of Cytochrome P450 3A4 (P08684 whole entry): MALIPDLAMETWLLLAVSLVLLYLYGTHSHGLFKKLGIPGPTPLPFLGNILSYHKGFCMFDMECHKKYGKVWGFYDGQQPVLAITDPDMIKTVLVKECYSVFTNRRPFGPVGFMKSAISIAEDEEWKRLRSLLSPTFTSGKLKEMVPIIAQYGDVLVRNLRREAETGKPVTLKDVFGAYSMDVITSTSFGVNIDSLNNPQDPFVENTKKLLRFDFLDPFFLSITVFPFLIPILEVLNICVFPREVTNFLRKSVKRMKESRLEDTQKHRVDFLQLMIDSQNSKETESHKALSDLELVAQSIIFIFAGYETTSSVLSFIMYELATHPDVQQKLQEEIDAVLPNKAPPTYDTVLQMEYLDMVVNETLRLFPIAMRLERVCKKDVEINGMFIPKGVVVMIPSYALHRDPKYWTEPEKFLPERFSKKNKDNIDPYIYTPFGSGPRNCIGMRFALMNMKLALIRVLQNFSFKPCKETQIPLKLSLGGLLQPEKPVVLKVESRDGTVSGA
A short description of assay [11]: P. falciparum Dd2 growth inhibitors, dose response, SYBR Green, cherry-picked samples (AID 1159567). Type of assay: functional, cell-based.

By IC50 is commonly meant the midpoint of a concentration-inhibition curve. For the compound `O=[N+]([O-])c1ncccc1Oc1nc(-c2cccnc2)nc2ccccc12`, in “cells”, the IC50 was 1.15 µM (active). For the same compound, the CC50 in [1] was > 40 µM (active).
For orientation: EC50 means the midpoint of the concentration-response curve. Take `COc1ccc(CCNC(=O)CC2(CC3=NS(=O)(=O)c4ccccc4N3)CCCC2)cc1OC`: the EC50 in [2] was > 120 µM (not active); in assay [3], 18.8 µM (active).
For the compound `Cc1ccc(NC(=O)CSc2nc3ccccc3c(=O)n2CCCN2CCCCC2)cc1Cl`, the CC50 in assay [1] was 14.4 µM (active). In addition, the EC50 in assay [4] was > 60 µM (inconclusive); in [5] it was 2.29 µM (active).
Regarding `COC(=O)/C(=C\Nc1ccc(Cl)cc1Cl)NC(=O)c1ccc(OC)cc1`, the EC50 in assay [6] was 4.31 µM (active); in the assay with BJ [7] it was 10 µM (inconclusive); with BJ [8], 57.7 µM (active); with BJ [9] it was 15.3 µM (inconclusive).
For `O=C(Nc1cccc(-c2nnc(-c3ccco3)o2)c1)C(c1ccccc1)c1ccccc1`, the CC50 in [10] is 15.2 µM (active).
With `CCOC(=O)c1nnc(-c2ccc(C)cc2)nc1Oc1ccccc1Cl`, the CC50 in [10] is 21.3 µM (active).
`Cc1c(C(=O)N/N=C/c2ccccc2)[nH]c2c([N+](=O)[O-])cccc12`: the half-maximal effective concentration (EC50) in [6] was 27.1 µM (inconclusive); in the assay with BJ [7] it was 0.776 µM (active); with BJ [8], 73.1 µM (inconclusive); in the assay with BJ [9] it was 0.708 µM (inconclusive).
In the case of `O=C(NCCN1CCN(c2cccc(Cl)c2)CC1)c1ccc(CSc2nc3cc[nH]cc-3n2)cc1`, in [1], the CC50 was > 40 µM (active).
In the case of `Cc1nn(-c2ccccc2)c2c1C1(C(=O)Nc3ccccc31)N1C(=N2)Sc2ccccc21` (stereo not given), in assay [10], the CC50 is 18.4 µM (active).
Take `COc1cc(OC)cc(-c2cc3nc(C)c(CCC(=O)NC(C)CCc4ccco4)c(C)n3n2)c1` (stereo not given): the CC50 in assay [1] was 31.8 µM (active). Besides, the results for the EC50 in [4] and in [5] were > 30 µM (not active) and 0.45 µM (active), respectively.
With `CCCCCCC(=O)Nc1nc(C)c(-c2csc(Nc3ccccc3OC)n2)s1`, the CC50 in assay [10] is 15 µM (active).
Consider `CC(=O)Nc1cccc(C(=O)/C=C/c2ccc(/C=C/C(=O)c3cccc(NC(C)=O)c3)cc2)c1`, for which the EC50 in [6] was 5.45 µM (inconclusive); in the assay on BJ [7], 5.89 µM (inconclusive); with BJ [8], > 150 µM (not active); in the assay with BJ [9], 3.93 µM (inconclusive).
Regarding `CCOC(=O)c1nnc2cc(-c3ccccc3)nn2c1C`, in assay [10], the CC50 was > 50 µM (active).
As for `CC(C)[C@H](CO)N(Cc1cccc(F)c1)c1nc(Nc2cccc(Cl)c2)c2ncn(C(C)C)c2n1`, the CC50 in assay [1] is > 40 µM (active).
Turning to `COc1ccc2nc(-c3cccc(F)c3)cc(O)c2c1`, the EC50 in assay [6] is 2.39 µM (inconclusive); with BJ [7] it was 1.24 µM (active); in the assay on BJ [8] it was 1.41 µM (inconclusive); in the assay with BJ [9], 0.885 µM (active).
Regarding `O=c1cc(-c2ccccc2)oc2ccccc12` [FLAVONE], the CC50 in [10] was 34.2 µM (active).
The AC50 is the concentration at which the activity in the assay is half-maximal. `COc1ccc(-c2cc(C(F)(F)F)nc(SCc3cccc(C(=O)O)c3)n2)cc1`: the AC50 at Cytochrome P450 3A4 was 14.1 µM (inconclusive). Further, in assay [10], the CC50 is 22.2 µM (active).
On to `COc1ccc(CNC(=O)c2cc3c(c(-c4cccc(-c5cccc(C#N)c5)c4)n2)[C@H](CCO)N([S@@+]([O-])C(C)(C)C)C3)cc1`, for which the AC50 in assay [11] is 3.46 µM (active).
On the same count and under the same terms, the result for `C[C@H]1CN([C@@H](C)CO)C(=O)CCCn2nncc2CO[C@@H]1CN(C)C(=O)Nc1ccc(N2CCCCC2)cc1` reads > 39 µM (inactive).
`Cc1ccc(C)c(S(=O)(=O)N2CCN(C(=O)c3ccccc3Cc3ccccc3)CC2)c1`: in [10], the CC50 was 22.6 µM (active).
Turning to `COc1ccc2c3c(n(C)c2c1)[C@H](CO)N(C(=O)Nc1ccc(F)cc1)CC31CN(C(=O)NC2CCCC2)C1`, the AC50 in assay [11] is 5.8 µM (active).
